Measured values reported in patent US20260028365A1 (BIOGEN MA INC., priority 2022, published 2026).
Like-named read-outs stand apart in the source and are kept apart here.

Legend:
Tyk2 = Tyk2 (Homo sapiens (Human), UniProt P29597); experiment: pSTAT4 Cell Assay (MSD, NK92 cells); format: cell-based
JH2 domain of human Tyk2 = JH2 domain of human Tyk2 (Homo sapiens (Human), UniProt P29597); experiment: JH2 Biochemical Assay (TR-FRET probe displacement); format: binding
[1] = TR-FRET probe displacement, JH2 domain of human Tyk2
[2] = JH2 domain of human Tyk2, TR-FRET probe displacement
[3] = TR-FRET probe displacement, JH2 domain

Sequence of JH2 domain of human Tyk2 (P29597 575-876): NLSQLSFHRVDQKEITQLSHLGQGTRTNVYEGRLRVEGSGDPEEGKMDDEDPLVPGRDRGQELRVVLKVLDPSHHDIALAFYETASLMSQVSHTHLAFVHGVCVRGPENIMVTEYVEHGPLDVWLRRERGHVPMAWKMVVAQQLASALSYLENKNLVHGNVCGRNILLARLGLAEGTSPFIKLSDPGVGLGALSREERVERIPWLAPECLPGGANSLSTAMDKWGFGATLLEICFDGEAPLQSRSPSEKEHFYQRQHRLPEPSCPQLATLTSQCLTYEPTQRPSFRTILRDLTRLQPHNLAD
Sequence of Tyk2 (P29597 whole entry, the tested form may be a part): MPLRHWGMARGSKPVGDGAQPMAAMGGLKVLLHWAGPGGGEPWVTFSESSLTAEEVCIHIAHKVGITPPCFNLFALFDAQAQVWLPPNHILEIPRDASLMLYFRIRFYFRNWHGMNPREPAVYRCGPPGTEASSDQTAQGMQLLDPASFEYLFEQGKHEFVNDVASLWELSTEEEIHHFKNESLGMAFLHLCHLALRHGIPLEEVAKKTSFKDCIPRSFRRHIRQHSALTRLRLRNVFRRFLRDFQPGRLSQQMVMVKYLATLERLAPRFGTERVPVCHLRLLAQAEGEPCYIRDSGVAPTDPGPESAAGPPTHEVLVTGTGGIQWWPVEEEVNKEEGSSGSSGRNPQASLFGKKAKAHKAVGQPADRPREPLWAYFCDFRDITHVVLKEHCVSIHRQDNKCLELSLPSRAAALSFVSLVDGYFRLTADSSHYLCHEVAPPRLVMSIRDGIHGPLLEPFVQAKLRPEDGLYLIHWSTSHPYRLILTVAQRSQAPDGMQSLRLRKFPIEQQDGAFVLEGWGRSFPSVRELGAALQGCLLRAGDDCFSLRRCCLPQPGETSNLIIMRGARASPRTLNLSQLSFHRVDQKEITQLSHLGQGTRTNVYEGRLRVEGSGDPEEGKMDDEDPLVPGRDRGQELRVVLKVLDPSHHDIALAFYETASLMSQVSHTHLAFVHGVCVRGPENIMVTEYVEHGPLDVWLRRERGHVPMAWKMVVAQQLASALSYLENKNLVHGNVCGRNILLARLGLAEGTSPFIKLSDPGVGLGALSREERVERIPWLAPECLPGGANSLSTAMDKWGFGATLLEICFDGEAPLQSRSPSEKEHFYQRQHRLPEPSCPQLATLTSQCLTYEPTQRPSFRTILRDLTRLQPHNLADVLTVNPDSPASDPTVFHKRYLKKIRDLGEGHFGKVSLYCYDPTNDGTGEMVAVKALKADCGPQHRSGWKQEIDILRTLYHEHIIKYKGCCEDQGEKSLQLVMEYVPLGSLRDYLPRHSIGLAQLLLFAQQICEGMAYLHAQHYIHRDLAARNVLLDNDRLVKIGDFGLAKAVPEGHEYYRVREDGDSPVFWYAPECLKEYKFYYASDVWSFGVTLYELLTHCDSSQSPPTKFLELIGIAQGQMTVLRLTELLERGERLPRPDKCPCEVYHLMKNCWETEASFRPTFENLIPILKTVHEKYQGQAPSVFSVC

CCc1noc(COc2cnc(NC(C)=O)cc2Nc2cc(C)nc(C(C)(F)F)n2)n1 [Example 331, N-(4-((2-(1,1-difluoroethyl)-6-methylpyrimidin-4-yl)amino)-5-((3-ethyl-1,2,4-oxadiazol-5-yl)methoxy)pyridin-2-yl)acetamide]
IC50 (Tyk2; MSD): 100 to 1000 nM
IC50 (JH2 domain of human Tyk2; [1]): 10 to 100 nM

COCc1ccc(-c2cnc(NC(C)=O)cc2Nc2cncc(OC(F)F)n2)nc1 [Example 588, N-(4′-((6-(difluoromethoxy)pyrazin-2-yl)amino)-5-(methoxymethyl)-[2,3′-bipyridin]-6′-yl)acetamide]
IC50 (Tyk2; MSD): 10 to 100 nM
IC50 (JH2 domain of human Tyk2; [2]): ≤ 10 nM

COc1cnc(NC(C)=O)cc1Nc1cc(-c2cn(C)nc2C(F)(F)F)nc(C(C)(F)F)n1 [Example 395, N-(4-((2-(1,1-difluoroethyl)-6-(1-methyl-3-(trifluoromethyl)-1H-pyrazol-4-yl)pyrimidin-4-yl)amino)-5-methoxypyridin-2-yl)acetamide]
IC50 (Tyk2; MSD): 100 to 1000 nM
IC50 (JH2 domain of human Tyk2; [2]): ≤ 10 nM

CCc1cc(Nc2cc(NC(C)=O)ncc2O[C@H]2C[C@@H](F)C2)nc(C(C)(F)F)n1 [Example 413, N-(4-((2-(1,1-difluoroethyl)-6-ethylpyrimidin-4-yl)amino)-5-((1s,3s)-3-fluorocyclobutoxy)pyridin-2-yl)acetamide]
IC50 (Tyk2; MSD): ≤ 10 nM
IC50 (JH2 domain of human Tyk2; [2]): ≤ 10 nM

COCc1nccc(-c2cnc(NC(C)=O)cc2Nc2ccnc(C(C)(F)F)n2)n1 [Example 696, N-(4-((2-(1,1-difluoroethyl)pyrimidin-4-yl)amino)-5-(2-(methoxymethyl)pyrimidin-4-yl)pyridin-2-yl)acetamide]
IC50 (Tyk2; MSD): ≤ 10 nM
IC50 (JH2 domain of human Tyk2; [2]): ≤ 10 nM

CC(=O)Nc1cc(Nc2cc(C)nc(C(C)(F)F)n2)c(-c2ccn(CC(C)(C)O)n2)cn1 [Example 228, N-(4-((2-(1,1-difluoroethyl)-6-methylpyrimidin-4-yl)amino)-5-(1-(2-hydroxy-2-methylpropyl)-1H-pyrazol-3-yl)pyridin-2-yl)acetamide]
IC50 (Tyk2; MSD): ≤ 10 nM
IC50 (JH2 domain of human Tyk2; [1]): ≤ 10 nM

CC(=O)Nc1cc(Nc2cc(C(C)C)nc(C(C)(F)F)n2)c(OCc2ccccn2)cn1 [Example 365, N-(4-((2-(1,1-difluoroethyl)-6-isopropylpyrimidin-4-yl)amino)-5-(pyridin-2-ylmethoxy)pyridin-2-yl)acetamide]
IC50 (Tyk2; MSD): ≤ 10 nM
IC50 (JH2 domain of human Tyk2; [1]): ≤ 10 nM

CC(=O)Nc1cc(Nc2cc(C)nc(C(C)(F)F)n2)c(-n2cc(C#N)cn2)cn1 [Example 733, N-(5-(4-cyanO1H-pyrazol-1-yl)-4-((2-(1,1-difluoroethyl)-6-methylpyrimidin-4-yl)amino)pyridin-2-yl)acetamide]
IC50 (Tyk2; MSD): 100 to 1000 nM
IC50 (JH2 domain of human Tyk2; [2]): ≤ 10 nM

COc1cnc(NC(C)=O)cc1Nc1cc(-c2cn[nH]c2F)nc(C(C)(F)F)n1 [Example 385, N-(4-((2-(1,1-difluoroethyl)-6-(5-fluoro-1H-pyrazol-4-yl)pyrimidin-4-yl)amino)-5-methoxypyridin-2-yl)acetamide]
IC50 (Tyk2; MSD): 100 to 1000 nM
IC50 (JH2 domain of human Tyk2; [2]): 10 to 100 nM

COCCOc1cnc(NC(C)=O)cc1Nc1cc(-c2cnn(C(C)C)c2)nc(C(C)(F)F)n1 [Example 366, N-(4-((2-(1,1-difluoroethyl)-6-(1-isopropyl-1H-pyrazol-4-yl)pyrimidin-4-yl)amino)-5-(2-methoxyethoxy)pyridin-2-yl)acetamide]
IC50 (Tyk2; MSD): ≤ 10 nM
IC50 (JH2 domain of human Tyk2; [1]): ≤ 10 nM

CC(=O)Nc1cc(Nc2cc(C)nc(C(C)(F)F)n2)c(-c2cc(CN3CCCC3)n(C)n2)cn1 [Example 803, N-(4-((2-(1,1-difluoroethyl)-6-methylpyrimidin-4-yl)amino)-5-(1-methyl-5-(pyrrolidin-1-ylmethyl)-1H-pyrazol-3-yl)pyridin-2-yl)acetamide]
IC50 (Tyk2): ≤ 10 nM
IC50 (JH2 domain of human Tyk2; [3]): ≤ 10 nM

COc1ccc(-c2cc(Nc3cc(NC(C)=O)ncc3OC)nc(C(C)(F)F)n2)cn1 [Example 391, N-(4-((2-(1,1-difluoroethyl)-6-(6-methoxypyridin-3-yl)pyrimidin-4-yl)amino)-5-methoxypyridin-2-yl)acetamide]
IC50 (Tyk2; MSD): 10 to 100 nM
IC50 (JH2 domain of human Tyk2; [2]): ≤ 10 nM

CC(=O)Nc1cc(Nc2ccnc(C(C)(F)F)n2)c(-c2cnc(N(C)C)cn2)cn1 [Example 842, N-(4-((2-(1,1-difluoroethyl)pyrimidin-4-yl)amino)-5-(5-(dimethylamino)pyrazin-2-yl)pyridin-2-yl)acetamide]
IC50 (Tyk2): 10 to 100 nM
IC50 (JH2 domain of human Tyk2; [3]): ≤ 10 nM

CC(=O)Nc1cc(Nc2ccnc(C(C)(F)F)n2)c(-c2ccc(CN3C[C@H]4C[C@@H](C3)O4)cn2)cn1 [Example 702, N-(5-(((1R,5S)-6-oxa-3-azabicyclo[3.1.1]heptan-3-yl)methyl)-4′-((2-(1,1-difluoroethyl)pyrimidin-4-yl)amino)-[2,3′-bipyridin]-6′-yl)acetamide]
IC50 (Tyk2; MSD): ≤ 10 nM
IC50 (JH2 domain of human Tyk2; [2]): ≤ 10 nM

COC1CC(COc2cnc(NC(C)=O)cc2Nc2cc(C)nc(C(C)(F)F)n2)C1 (stereo not drawn) [Example 40, N-(4-((2-(1,1-difluoroethyl)-6-methylpyrimidin-4-yl)amino)-5-((3-methoxycyclobutyl)methoxy)pyridin-2-yl)acetamide]
IC50 (Tyk2; MSD): 10 to 100 nM
IC50 (JH2 domain of human Tyk2; [1]): ≤ 10 nM

CCc1cc(Nc2cc(NC(C)=O)ncc2OCCCF)nc(C(C)(F)F)n1 [Example 405, N-(4-((2-(1,1-difluoroethyl)-6-ethylpyrimidin-4-yl)amino)-5-(3-fluoropropoxy)pyridin-2-yl)acetamide]
IC50 (Tyk2; MSD): 10 to 100 nM
IC50 (JH2 domain of human Tyk2; [2]): ≤ 10 nM

CC(=O)Nc1cc(Nc2cc(C)nc(C(C)(F)F)n2)c(-c2nsc(N(C)C)n2)cn1 [Example 763, N-(4-((2-(1,1-difluoroethyl)-6-methylpyrimidin-4-yl)amino)-5-(5-(dimethylamino)-1,2,4-thiadiazol-3-yl)pyridin-2-yl)acetamide]
IC50 (Tyk2): 100 to 1000 nM
IC50 (JH2 domain of human Tyk2; [3]): ≤ 10 nM

CCS(=O)(=O)n1ccc(-c2cnc(NC(C)=O)cc2Nc2cc(C)nc(C(C)(F)F)n2)n1 [Example 542, N-(4-((2-(1,1-difluoroethyl)-6-methylpyrimidin-4-yl)amino)-5-(1-(ethylsulfonyl)-1H-pyrazol-3-yl)pyridin-2-yl)acetamide]
IC50 (Tyk2; MSD): ≤ 10 nM
IC50 (JH2 domain of human Tyk2; [2]): ≤ 10 nM

CC(=O)Nc1cc(Nc2ccnc(C3CCOC3)n2)c(-c2ccn(C)n2)cn1 (stereo not drawn) [Example 556, N-(5-(1-methyl-1H-pyrazol-3-yl)-4-((2-(tetrahydrofuran-3-yl)pyrimidin-4-yl)amino)pyridin-2-yl)acetamide]
IC50 (Tyk2; MSD): 10 to 100 nM
IC50 (JH2 domain of human Tyk2; [2]): ≤ 10 nM

CC(=O)Nc1cc(Nc2cc(C)nc(C(C)(F)F)n2)c(-c2cnc(N(C)C)cn2)cn1 [Example 225, N-(4-((2-(1,1-difluoroethyl)-6-methylpyrimidin-4-yl)amino)-5-(5-(dimethylamino)pyrazin-2-yl)pyridin-2-yl)acetamide]
IC50 (Tyk2; MSD): 10 to 100 nM
IC50 (JH2 domain of human Tyk2; [1]): ≤ 10 nM

CC(=O)Nc1cc(Nc2cc(C)nc(C(C)(F)F)n2)c(OCCN(C)C)cn1 [Example 25, N-(4-((2-(1,1-difluoroethyl)-6-methylpyrimidin-4-yl)amino)-5-(2-(dimethylamino)ethoxy)pyridin-2-yl)acetamide]
IC50 (Tyk2; MSD): 10 to 100 nM
IC50 (JH2 domain of human Tyk2; [1]): ≤ 10 nM

CC(=O)Nc1cc(Nc2cc(C)nc(C(C)(F)F)n2)c(OCc2cnc(C)o2)cn1 [Example 320, N-(4-((2-(1,1-difluoroethyl)-6-methylpyrimidin-4-yl)amino)-5-((2-methyloxazol-5-yl)methoxy)pyridin-2-yl)acetamide]
IC50 (Tyk2; MSD): 10 to 100 nM
IC50 (JH2 domain of human Tyk2; [1]): ≤ 10 nM

CC(=O)Nc1cc(Nc2cc(C3CC3)nc(C(C)(F)F)n2)c(-c2ccn(C)n2)cn1 [Example 206, N-(4-((6-cyclopropyl-2-(1,1-difluoroethyl)pyrimidin-4-yl)amino)-5-(1-methyl-1H-pyrazol-3-yl)pyridin-2-yl)acetamide]
IC50 (Tyk2; MSD): ≤ 10 nM
IC50 (JH2 domain of human Tyk2; [1]): ≤ 10 nM

CC(=O)Nc1cc(Nc2cc(C)nc(C(C)(F)F)n2)c(OCC2COCC(C)(C)O2)cn1 (stereo not drawn) [Example 419, N-(4-((2-(1,1-difluoroethyl)-6-methylpyrimidin-4-yl)amino)-5-((6,6-dimethyl-1,4-dioxan-2-yl)methoxy)pyridin-2-yl)acetamide]
IC50 (Tyk2; MSD): ≤ 10 nM
IC50 (JH2 domain of human Tyk2; [2]): ≤ 10 nM

CCOc1cnc(NC(C)=O)cc1Nc1cc(OC2CCC2)nc(C(C)(F)F)n1 [Example 462, N-(4-((6-cyclobutoxy-2-(1,1-difluoroethyl)pyrimidin-4-yl)amino)-5-ethoxypyridin-2-yl)acetamide]
IC50 (Tyk2; MSD): ≤ 10 nM
IC50 (JH2 domain of human Tyk2; [2]): ≤ 10 nM

CC(=O)Nc1cc(Nc2cc(C)nc(C(C)(F)F)n2)c(OC[C@]23C[C@](C)(CO2)C3)cn1 [Example 514, N-(4-((2-(1,1-difluoroethyl)-6-methylpyrimidin-4-yl)amino)-5-(((1s,4s)-4-methyl-2-oxabicyclo[2.1.1]hexan-1-yl)methoxy)pyridin-2-yl)acetamide]
IC50 (Tyk2; MSD): ≤ 10 nM
IC50 (JH2 domain of human Tyk2; [2]): ≤ 10 nM

CC(=O)Nc1cc(Nc2cc(C)nc(C(C)(F)F)n2)c(OCC(F)(F)F)cn1 [Example 23, N-(4-((2-(1,1-difluoroethyl)-6-methylpyrimidin-4-yl)amino)-5-(2,2,2-trifluoroethoxy)pyridin-2-yl)acetamide]
IC50 (Tyk2; MSD): 100 to 1000 nM
IC50 (JH2 domain of human Tyk2; [1]): ≤ 10 nM

CC(=O)Nc1cc(Nc2cc(C)nc(C(C)(F)F)n2)c(OCc2ccncc2)cn1 [Example 473, N-(4-((2-(1,1-difluoroethyl)-6-methylpyrimidin-4-yl)amino)-5-((pyridin-4-yl)methoxy)pyridin-2-yl)acetamide]
IC50 (Tyk2; MSD): 10 to 100 nM
IC50 (JH2 domain of human Tyk2; [2]): ≤ 10 nM

CC(=O)Nc1cc(Nc2cc(C)nc(C(C)(F)F)n2)c(-c2cnc(COC(F)F)cn2)cn1 [Example 662, N-(4-((2-(1,1-difluoroethyl)-6-methylpyrimidin-4-yl)amino)-5-(5-((difluoromethoxy)methyl)pyrazin-2-yl)pyridin-2-yl)acetamide]
IC50 (Tyk2; MSD): 10 to 100 nM
IC50 (JH2 domain of human Tyk2; [2]): ≤ 10 nM

CC(=O)Nc1cc(Nc2cc(C)nc(C(C)(F)F)n2)c(-c2ncn(C)n2)cn1 [Example 157, N-(4-((2-(1,1-difluoroethyl)-6-methylpyrimidin-4-yl)amino)-5-(1-methyl-1H-1,2,4-triazol-3-yl)pyridin-2-yl)acetamide]
IC50 (Tyk2; MSD): 100 to 1000 nM
IC50 (JH2 domain of human Tyk2; [1]): ≤ 10 nM
